Source: patent US9079900B2, “Methods of synthesis and purification of heteroaryl compounds” (SIGNAL PHARMACEUTICALS, LLC, priority 2009, dated 2015)

Row | melting point | SMILES
1 | 239 to 241 °C | CC(C)(O)c1ccc(-c2cnc3c(n2)N(CCN2CCOCC2)CC(=O)N3)cn1 [Example 5, 6-(6-(2-Hydroxypropan-2-yl)pyridin-3-yl)-4-(2-morpholinoethyl)-3,4-dihydropyrazino[2,3-b]pyrazin-2(1H)-one]
2 | 255 to 258 °C | O=C1CNc2ncc(-c3cnc4[nH]ccc4c3)nc2N1CCC1CCOCC1 [Example 15, 7-(1H-Pyrrolo[2,3-b]pyridin-5-yl)-1-(2-(tetrahydro-2h-pyran-4-yl)ethyl)-3,4-dihydropyrazino[2,3-b]pyrazin-2(1H)-one]
